{"source": "patent US20090305890A1", "about": "“METHOD OF CONTROLLING PLANTS” (SYNGENTA LIMITED, priority 2005, published 2009)", "assay_type_in_all_cases": "in vivo", "key": {"[1]": {"tested_on": "paraquat resistant Lolium biotype RL 1", "assay": "Greenhouse visual assessment of percentage control, Example 1", "conditions": "14 days after applying", "method": "(§1) Aqueous herbicidal compositions comprising water and paraquat alone at various application rates, glufosinate ammonium alone at various application rates and compositions containing water and combinations of these two herbicides were applied over certain paraquat resistant plants. Ammonium sulphate was included in all of the compositions at a concentration of 1% w/v. The effectiveness of the composition in controlling the plants was assessed visually 14 days after applying the herbicide. The assessment was made as a percentage control −0% representing no damage and 100% representing death of all the plants. The plants used were two paraquat resistant Lolium biotypes (referred to as RL 1 and RL 2, collected in South Africa). The plants were grown in a greenhouse to the two-three true leaves stage before the herbicide was applied. Three replicates of each treatment were carried out.\n(§2) The results were analysed using the Colby formula which generates an expected level of control from the results obtained by using the individual components alone. This was compared with the actual level of control. The Colby formula predicts that the expected percentage level of control E for a particular combination of components is obtained as follows, in which P1 and P2 are the levels of control obtained by using the components alone\n(§3) The figures given in the Synergy column in the table below are the difference between the predicted level of control and the actual level of control. A figure of zero means that the actual result is as predicted by the Colby equation. Any number above zero represents evidence of synergy. Numbers below zero may represent antagonism."}, "[2]": {"tested_on": "paraquat resistant Lolium biotype RL 2", "assay": "Greenhouse visual assessment of percentage control, Example 1", "conditions": "14 days after applying", "method": "as §1, §2, §3"}, "[3]": {"tested_on": "paraquat resistant ryegrass (Lolium rigidum)", "assay": "Glasshouse study, visual percentage control, Example 2", "conditions": "Paraquat Resistant Population, 28 days after applying", "method": "(§4) A glasshouse study was conducted with two biotypes of ryegrass (Lolium rigidum), one paraquat resistant and the other paraquat susceptible. The plants (3 leaf stage) were planted in pots at a density of approximately 14,000 plants/m^2 to simulate field infestation levels. The treatments were based on commercial formulations of paraquat and glufosinate were diluted in water including the adjuvants AMS (5%) and Agral 90 (0.25%). The treatments were applied to the plants in a spray volume equivalent to 400 lts/ha. Each treatment was replicated three times. The effectiveness of the treatments in controlling the plants was assessed visually 28 days after applying the herbicide. The assessment was made as a percentage control −0% representing no damage and 100% representing death of all the plants."}, "[4]": {"tested_on": "paraquat susceptible ryegrass (Lolium rigidum)", "assay": "Glasshouse study, visual percentage control, Example 2", "conditions": "Paraquat Susceptible Population, 28 days after applying", "method": "as §4"}, "[5]": {"tested_on": "paraquat resistant ryegrass (Lolium rigidum)", "assay": "Glasshouse test of sequential (split) application, visual percentage control, Example 3", "conditions": "28 days after the initial application", "method": "A glasshouse test was conducted to examine the effect of applying the products sequentially (ie. in a split application), using paraquat resistant ryegrass (Lolium rigidum) plants. The plants were planted in pots and at the time of the initial application they were at the 4½ leaf stage. The treatments were based on commercial formulations of paraquat and glufosinate were diluted in water including the adjuvants AMS (5%) and Agral 90 (0.25%). The treatments' were applied to the plants in a spray volume equivalent to 400 lts/ha. Each treatment was replicated 3 times. The effectiveness of the treatments in controlling the plants was assessed visually 28 days after the initial application date. The assessment was made as a percentage control −0% representing no damage and 100% representing death of all the plants."}, "[6]": {"conditions": "glufosinate ammonium 50 g/ha alone"}, "[7]": {"conditions": "glufosinate ammonium 100 g/ha alone"}, "[8]": {"conditions": "glufosinate ammonium 200 g/ha alone"}, "[9]": {"conditions": "glufosinate ammonium 400 g/ha alone"}, "[10]": {"conditions": "glufosinate ammonium 600 g/ha alone"}}, "data": [{"smiles": "CP(=O)(O)CCC(N)C(=O)O", "note": "(racemic) [glufosinate ammonium, ammonium 4-[hydrox(methyl)phosphinoyl]-DL-homoalaninate]", "values": [{"measurement": "Average % control of RL 1", "setting": "[1]; [6]", "result": 0, "unit": "%"}, {"measurement": "Average % control of RL 1", "setting": "[1]; [7]", "result": 0, "unit": "%"}, {"measurement": "Average % control of RL 1", "setting": "[1]; [8]", "result": 3, "unit": "%"}, {"measurement": "Average % control of RL 1", "setting": "[1]; [9]", "result": 2, "unit": "%"}, {"measurement": "Average % control of RL 1", "setting": "[1]; [10]", "result": 78, "unit": "%"}, {"measurement": "Average % control of RL 2", "setting": "[2]; [6]", "result": 0, "unit": "%"}, {"measurement": "Average % control of RL 2", "setting": "[2]; [7]", "result": 0, "unit": "%"}, {"measurement": "Average % control of RL 2", "setting": "[2]; [8]", "result": 2, "unit": "%"}, {"measurement": "Average % control of RL 2", "setting": "[2]; [9]", "result": 33, "unit": "%"}, {"measurement": "Average % control of RL 2", "setting": "[2]; [10]", "result": 89, "unit": "%"}, {"measurement": "Percentage Control", "setting": "[3]; Glufosinate 300 g ai/ha", "result": 44, "unit": "%"}, {"measurement": "Percentage Control", "setting": "[4]; Glufosinate 300 g ai/ha", "result": 85, "unit": "%"}, {"measurement": "% Control", "setting": "[5]; 150 g ai/ha", "result": 0, "unit": "%"}, {"measurement": "% Control", "setting": "[5]; 200 g a/ha", "result": 33, "unit": "%"}, {"measurement": "% Control", "setting": "[5]; 300 g ai/ha", "result": 83, "unit": "%"}]}, {"smiles": "C[n+]1ccc(-c2cc[n+](C)cc2)cc1", "note": "[Paraquat, 1,1′-dimethyl-4,4′-bipyridylium cation]", "values": [{"measurement": "Average % control of RL 1", "setting": "[1]; paraquat 10 g/ha alone", "result": 0, "unit": "%"}, {"measurement": "Average % control of RL 1", "setting": "[1]; paraquat 20 g/ha alone", "result": 0, "unit": "%"}, {"measurement": "Average % control of RL 1", "setting": "[1]; paraquat 60 g/ha alone", "result": 0, "unit": "%"}, {"measurement": "Average % control of RL 1", "setting": "[1]; paraquat 80 g/ha alone", "result": 17, "unit": "%"}, {"measurement": "Average % control of RL 1", "setting": "[1]; paraquat 400 g/ha alone", "result": 33, "unit": "%"}, {"measurement": "Average % control of RL 1", "setting": "[1]; paraquat 1200 g/ha alone", "result": 33, "unit": "%"}, {"measurement": "Average % control of RL 1", "setting": "[1]; paraquat 2000 g/ha alone", "result": 98, "unit": "%"}, {"measurement": "Average % control of RL 1", "setting": "[1]; paraquat 4000 g/ha alone", "result": 100, "unit": "%"}, {"measurement": "Average % control of RL 2", "setting": "[2]; paraquat 10 g/ha alone", "result": 0, "unit": "%"}, {"measurement": "Average % control of RL 2", "setting": "[2]; paraquat 20 g/ha alone", "result": 0, "unit": "%"}, {"measurement": "Average % control of RL 2", "setting": "[2]; paraquat 60 g/ha alone", "result": 0, "unit": "%"}, {"measurement": "Average % control of RL 2", "setting": "[2]; paraquat 80 g/ha alone", "result": 0, "unit": "%"}, {"measurement": "Average % control of RL 2", "setting": "[2]; paraquat 400 g/ha alone", "result": 0, "unit": "%"}, {"measurement": "Average % control of RL 2", "setting": "[2]; paraquat 1200 g/ha alone", "result": 7, "unit": "%"}, {"measurement": "Average % control of RL 2", "setting": "[2]; paraquat 2000 g/ha alone", "result": 3, "unit": "%"}, {"measurement": "Average % control of RL 2", "setting": "[2]; paraquat 4000 g/ha alone", "result": 42, "unit": "%"}, {"measurement": "Percentage Control", "setting": "[3]; Paraquat 600 g ai/ha", "result": 29, "unit": "%"}, {"measurement": "Percentage Control", "setting": "[4]; Paraquat 600 g ai/ha", "result": 100, "unit": "%"}, {"measurement": "% Control", "setting": "[5]; 600 g ai/ha", "result": 58, "unit": "%"}]}]}
